From patent US8299048B2, “Hexahydrocyclopentyl[f]indazole sulfonamides and derivatives thereof as selective glucocorticoid receptor modulators” (Merck Sharp & Dohme Corp., priority 2008, dated 2012)

Tests used:
[1] = target: T1, human GR (Homo sapiens, UniProt P04150); test: Transrepression Assay (GITAR), TNFα-β-lactamase reporter in U937 cells; type: cell-based; design: U937 cells contain an endogenous glucocorticoid receptor (GR); endogenous in cells; host or cells: U937 cells stably transfected with the TNF-alpha promoter/beta-lactamase reporter; settings: for GITAR > GRAMM % SEP: GITAR Emax minus GRAMMER Emax; for EC50: U937 cells, inflection point, read-out: Transrepression U937 Cells GITAR IP
T1 sequence (P04150 1-777): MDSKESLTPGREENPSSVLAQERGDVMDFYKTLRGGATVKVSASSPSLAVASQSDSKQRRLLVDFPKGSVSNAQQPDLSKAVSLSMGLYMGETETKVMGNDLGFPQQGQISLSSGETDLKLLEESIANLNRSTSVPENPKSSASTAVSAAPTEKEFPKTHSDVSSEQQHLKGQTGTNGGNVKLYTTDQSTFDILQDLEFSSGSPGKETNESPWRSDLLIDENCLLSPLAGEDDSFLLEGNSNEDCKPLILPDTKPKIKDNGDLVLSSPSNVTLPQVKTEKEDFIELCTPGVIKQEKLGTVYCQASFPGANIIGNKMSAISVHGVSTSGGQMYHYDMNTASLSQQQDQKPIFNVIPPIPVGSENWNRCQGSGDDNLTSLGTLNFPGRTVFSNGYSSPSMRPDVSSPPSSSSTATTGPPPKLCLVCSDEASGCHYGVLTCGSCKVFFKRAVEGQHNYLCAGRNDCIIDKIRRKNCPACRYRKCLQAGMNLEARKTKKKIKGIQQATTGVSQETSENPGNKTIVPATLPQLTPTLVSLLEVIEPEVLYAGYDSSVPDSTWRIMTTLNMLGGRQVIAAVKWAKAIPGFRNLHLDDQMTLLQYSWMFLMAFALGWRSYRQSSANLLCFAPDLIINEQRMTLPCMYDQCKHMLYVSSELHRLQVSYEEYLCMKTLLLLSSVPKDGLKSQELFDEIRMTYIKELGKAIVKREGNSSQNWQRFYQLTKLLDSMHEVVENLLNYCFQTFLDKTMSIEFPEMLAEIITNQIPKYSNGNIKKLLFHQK
Outline: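 U937 cells with endogenous GR, stably carrying TNFα promoter–β-lactamase, preincubated with compound 30–45 min at 37° C, then stimulated with PMA 5 ng/ml and LPS 100 ng/ml (final) ~18 hr. Read-out via CCF2-AM loading; repression by 100 nM dexamethasone set as 100%.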

[2] = target: T1, human GR; test: Trans-Activation Modulation of Glucocorticoid Receptor (GRAMMER), MMTV-LUC reporter, agonist mode; type: cell-based; design: endogenous in cells; settings: for Emax: A549, A549 cells, maximum activity, read-out: Transactivation A549 Cells GRAMMER Emax; for EC50: A549 cells, inflection point, read-out: Transactivation A549 Cells GRAMMER IP
Outline: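 Readout is luciferase from a modified MMTV LTR promoter after 24 h compound exposure alongside 10 nM dexamethasone (100% activity reference), DMSO ≤1%.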

[3] = U-937, U937 cells, maximum activity, read-out: Transrepression U937 Cells GITAR Emax
[4] = U-937, activity repressed by 100 nM dexamethasone alone set as 100%, read-out: maximal activity in the transrepression (GITAR) assay

SMILES | GITAR > GRAMM % SEP [1] | EC50 [1] | Emax [1, 3] | Emax [1, 4] | Emax [2] | EC50 [2]
Cc1noc(C)c1S(=O)(=O)N(CCc1ccccc1O)C[C@H]1CCC2=Cc3c(cnn3-c3ccc(F)cc3)C[C@@]21C [Example 123, N-{[(4αR,5S)-1-(4-fluorophenyl)-4α-methyl-1,4,4α,5,6,7-hexahydrocyclopenta[f]indazol-5-yl]methyl}-N-[2-(2-hydroxyphenyl)ethyl]-3,5-dimethylisoxazole-4-sulfonamide] | 25.4% | 128 nM | 90.8% | > 5% | 65.4% | 195 nM
C[C@]12Cc3cnn(-c4ccc(F)cc4)c3C=C1CC[C@@H]2CN(CCc1ccccc1F)S(=O)(=O)Cc1cccnc1 [Example 124, N-[2-(2-fluorophenyl)ethyl]-N-{[(4αR,5S)-1-(4-fluorophenyl)-4α-methyl-1,4,4α,5,6,7-hexahydrocyclopenta[f]indazol-5-yl]methyl}-1-pyridin-3-ylmethanesulfonamide] | 1.3% | 251 nM | 100% | > 5% | 99.2% | 218 nM
COc1ccccc1CCN(C[C@H]1CCC2=Cc3c(cnn3-c3ccc(F)cc3)C[C@@]21C)S(=O)(=O)Cc1cccnc1 [Example 125, N-{[(4αR,5S)-1-(4-fluorophenyl)-4α-methyl-1,4,4α,5,6,7-hexahydrocyclopenta[f]indazol-5-yl]methyl}-N-[2-(2-methoxyphenyl)ethyl]-1-pyridin-3-ylmethanesulfonamide] | 34.1% | 575 nM | 55.3% | > 5% | 21.2% | 508 nM
COc1cccc(CCN(C[C@H]2CCC3=Cc4c(cnn4-c4ccc(F)cc4)C[C@@]32C)S(=O)(=O)CC(F)(F)F)c1 [Example 126, 2,2,2-trifluoro-N-{[(4αR,5S)-1-(4-fluorophenyl)-4α-methyl-1,4,4α,5,6,7-hexahydrocyclopenta[f]indazol-5-yl]methyl}-N-[2-(3-methoxyphenyl)ethyl]ethanesulfonamide] | 11.7% | 233 nM | 90% | > 5% | 78.2% | 227 nM
COc1ccc(CCN(C[C@H]2CCC3=Cc4c(cnn4-c4ccc(F)cc4)C[C@@]32C)S(=O)(=O)CC(F)(F)F)cc1 [Example 127, 2,2,2-trifluoro-N-{[(4αR,5S)-1-(4-fluorophenyl)-4α-methyl-1,4,4α,5,6,7-hexahydrocyclopenta[f]indazol-5-yl]methyl}-N-[2-(4-methoxyphenyl)ethyl]ethanesulfonamide] | 15.1% | 202 nM | 83% | > 5% | 67.9% | 232 nM
C[C@]12Cc3cnn(-c4ccc(F)cc4)c3C=C1CC[C@@H]2CN(CCc1ccccn1)S(=O)(=O)CC(F)(F)F [Example 128, 2,2,2-trifluoro-N-{[(4αR,5S)-1-(4-fluorophenyl)-4α-methyl-1,4,4α,5,6,7-hexahydrocyclopenta[f]indazol-5-yl]methyl}-N-(2-pyridin-2-ylethyl)ethanesulfonamide] | 19.3% | 324 nM | 88.4% | > 5% | 69.1% | 252 nM
C[C@]12Cc3cnn(-c4ccc(F)cc4)c3C=C1CC[C@@H]2CN(CCc1ccncc1)S(=O)(=O)CC(F)(F)F [Example 129, 2,2,2-trifluoro-N-{[(4αR,5S)-1-(4-fluorophenyl)-4α-methyl-1,4,4α,5,6,7-hexahydrocyclopenta[f]indazol-5-yl]methyl}-N-(2-pyridin-4-ylethyl)ethanesulfonamide] | 11.9% | 623 nM | 79.1% | > 5% | 67.2% | 948 nM
C[C@]12Cc3cnn(-c4ccc(F)cc4)c3C=C1CC[C@@H]2CN(CCc1ccc(O)cc1)S(=O)(=O)CC(F)(F)F [Example 130, 2,2,2-trifluoro-N-{[(4αR,5S)-1-(4-fluorophenyl)-4α-methyl-1,4,4α,5,6,7-hexahydrocyclopenta[f]indazol-5-yl]methyl}-N-[2-(4-hydroxyphenyl)ethyl]ethanesulfonamide] | 13.6% | 229 nM | 79.7% | > 5% | 66.1% | 369 nM
C[C@]12Cc3cnn(-c4ccc(F)cc4)c3C=C1CC[C@@H]2CN(CCc1ccccc1O)S(=O)(=O)Cc1cccnc1 [Example 131, N-{[(4αR,5S)-1-(4-fluorophenyl)-4α-methyl-1,4,4α,5,6,7-hexahydrocyclopenta[f]indazol-5-yl]methyl}-N-[2-(2-hydroxyphenyl)ethyl]-1-pyridin-3-ylmethanesulfonamide] | 22.9% | 437 nM | 60.3% | > 5% | 37.4% | 571 nM
C[C@]12Cc3cnn(-c4ccc(F)cc4)c3C=C1CC[C@@H]2CN(Cc1cccnn1)S(=O)(=O)CC(F)(F)F [Example 132, 2,2,2-trifluoro-N-{[(4αR,5S)-1-(4-fluorophenyl)-4α-methyl-1,4,4α,5,6,7-hexahydrocyclopenta[f]indazol-5-yl]methyl}-N-(pyridazin-3-ylmethyl)ethanesulfonamide] | 50.8% | 791 nM | 74% | > 5% | 23.2% | 422 nM
C[C@]12Cc3cnn(-c4ccc(F)cc4)c3C=C1CC[C@@H]2CN(CC(O)C(F)F)S(=O)(=O)CC(F)(F)F (stereo partly drawn) [Example 133, N-(3,3-difluoro-2-hydroxypropyl)-2,2,2-trifluoro-N-{[(4αR,5S)-1-(4-fluorophenyl)-4α-methyl-1,4,4α,5,6,7-hexahydrocyclopenta[f]indazol-5-yl]methyl}ethanesulfonamide] | 22.5% | 82.6 nM | 95.9% | > 5% | 73.4% | 67.5 nM
C[C@]12Cc3cnn(-c4ccc(F)cc4)c3C=C1CC[C@@H]2CN(CC(OS(=O)(=O)CC(F)(F)F)C(F)F)S(=O)(=O)CC(F)(F)F (stereo partly drawn) [Example 134, 2,2-difluoro-1-({{[(4αR,5S)-1-(4-fluorophenyl)-4α-methyl-1,4,4α,5,6,7-hexahydrocyclopenta[f]indazol-5-yl]methyl}[(2,2,2-trifluoroethyl)sulfonyl]amino}methyl)ethyl 2,2,2-trifluoroethanesulfonate] | 4.7% | 243 nM | 93.8% | > 5% | 89.2% | 216 nM
C[C@]12Cc3cnn(-c4ccc(F)cc4)c3C=C1CC[C@@H]2CN(CC1(O)CC1)S(=O)(=O)CC(F)(F)F [Example 135, 2,2,2-trifluoro-N-{[(4αR,5S)-1-(4-fluorophenyl)-4α-methyl-1,4,4α,5,6,7-hexahydrocyclopenta[f]indazol-5-yl]methyl}-N-[(1-hydroxycyclopropyl)methyl]ethanesulfonamide] | 19.2% | 258 nM | 87.9% | > 5% | 68.8% | 127 nM
C[C@]12Cc3cnn(-c4ccc(F)cc4)c3C=C1CC[C@@H]2CN(CC1(OS(=O)(=O)CC(F)(F)F)CC1)S(=O)(=O)CC(F)(F)F [Example 136, 1-({{[(4αR,5S)-1-(4-fluorophenyl)-4α-methyl-1,4,4α,5,6,7-hexahydrocyclopenta[f]indazol-5-yl]methyl}[(2,2,2-trifluoroethyl)sulfonyl]amino}methyl)cyclopropyl 2,2,2-trifluoroethanesulfonate] | 42.0% | 441 nM | 101% | > 5% | 58.8% | 279 nM
C[C@]12Cc3cnn(-c4ccccc4)c3C=C1CC[C@@H]2CN(CCc1ccccc1F)S(=O)(=O)CC(F)(F)F [Example 137, 2,2,2-trifluoro-N-[2-(2-fluorophenyl)ethyl]-N-{[(4αR,5S)-4α-methyl-1-phenyl-1,4,4α,5,6,7-hexahydrocyclopenta[f]indazol-5-yl]methyl}ethanesulfonamide] | 14.0% | 324 nM | 87.6% | > 5% | 73.6% | 143 nM
